Experimental data from patent publication US20020160441A1, “Protein elongation factor 2 as a target for antifungal and antiparasitic agents” (Merck & Co., Inc., priority 1998, published 2002).

Assays:
[1] = molecular target: T1, Saccharomyces cerevisiae EF2 in crude S30 extracts (Saccharomyces cerevisiae, UniProt P32324); test: Competitive binding assay, Saccharomyces S30 extract; details: for displacement of ^3H-Compound I binding (in words): unlabelled competitor
T1 construct: A Saccharomyces cerevisiae strain containing wild-type EF2 is inoculated into medium; endogenous in cells; host or cells: Saccharomyces cerevisiae strain with wild-type EF2, S30 extract
Method: (§1) A competitive assay can be performed involving the displacement of a radiolabeled compound with specificity for pathogen EF2 such as ^3H-Compound I binding to Saccharomyces cerevisiae EF2 in crude S30 extracts. As proof of the specificity of inhibitor found with the S30 binding assay, binding competition can also be performed with purified EF2 in the presence of washed ribosomes
In a microfuge tube 100 μl assay mixture contains: 10 μg yeast S-30, 25 μM GTP-γ-s (0.5 μl of 5 mM stock), dilutions of agent to be examined for ability to compete for binding and Buffer B to bring volume to 98 μl. Vortex and incubate at room temperature 5 min. Add 2 μl ^3H-Compound I (1:20 dilution in water). Vortex and incubate for 20-30 min.
To a Sephadex G-75 column was pre-soaked in Buffer A (20 gm/400 ml) several hours. Mini columns were packed with G-75 precisely to the mark line (˜1.6 ml ) and allowed to settle by washing with 2 ml Buffer A.
The 100μl incubated mixtures are loaded onto G-75 columns (no collection) As soon as the sample has entered the gel bed (approximately 20 sec), 0.7 ml Buffer A is added and eluate is collected in mini vials 3 ml Scintiverse is added and vials counted.
Saccharomyces S30 extract: A Saccharomyces cerevisiae strain containing wild-type EF2 is inoculated into medium containing in g/l: 10 g Bacto Yeast Extract, 20 g Bacto Peptone, 20 g dextrose and 60 mg adenine and incubated with shaking at 30° C. until mid to late logarithmic phase (A600˜2). The cells are harvested and washed twice with water. Pellets may be stored at −70° C. indefinitely prior to disruption. For breakage, cells are resuspended in 2 vol of buffer containing 50 mM Tris-Cl pH 7.4, 10% (wt/vol) glycerol, 2 mM MgCl2, 2 mM dithiothreitol, 1 mM phenylmethylsulfonyl fluoride and broken by prolonged agitation with acid-washed 0.5 mm glass beads. The supernatant is centrifuged at […] for 15 min to sediment cell debris.

wheat germ EF2 = test: Binding assay with purified components, wheat germ EF2; details: yeast EF2 replaced by wheat germ EF2
Method: (§2) This assay involves the same procedure as disclosed above substituting 0.4 A260 units salt-washed S. cerevisiae ribosomes and 1 pmol purified EF2 for the 10 μg S30 in the above assay. The ribosomes and EF2 are both prepared by published methods (L. Skogerson, Methods in Enzymology, Vol LX,p676-685).
(§3) As with the S30 binding assay, this assay may be used to either identify the component binding drug, or to examine competition by unknown agents.

[2] = molecular target: T2, purified Saccharomyces EF2 (Saccharomyces cerevisiae, UniProt P32324); test: Binding assay with purified components, Saccharomyces EF2; details: for binding of labelled compound (in words): yeast EF2
T2 construct: The ribosomes and EF2 are both prepared by published methods; endogenous in cells; host or cells: Saccharomyces cerevisiae; EF2 purified by the method of Skogerson, Methods in Enzymology LX
Method: as §2, §3

rat EF2 = molecular target: T3, rat EF2 (Rattus norvegicus, UniProt P05197); test: Binding assay with purified components, rat EF2; details: yeast EF2 replaced by rat (liver) EF2
T3 construct: from tissue; host or cells: rat liver
Method: as §2, §3

wheat germ S30 extracts = test: Binding assay with wheat germ S30 extracts
Excerpt: as §1
(§4) The binding is displaceable by unlabelled L-793,422, sordarin and analogs. No binding is seen with mammalian cell or wheat germ S30 extracts.

[3] = system: mammalian cell S30 extracts; test: Binding assay with mammalian cell S30 extracts
Excerpt: as §1, §4

[4] = system: S. cerevisiae sordarin resistant strain (sR1); test: Growth inhibition assay I, sordarin resistant strain; type: cell-based, Saccharomyces cerevisiae; details: 0.5 μg applied; agar plate, 30° C., 16-24 hours
Excerpt: (§5) An assay has been developed to identify antifungal compounds with sordarin like activities using S. cerevisiae as as a surrogate organism. It consists of a two plate differential zone assay using sordarin sensitive (sS1) and resistant strains (sR1) that contain an erg6 deletion, which increases membrane permeability and facilitates the uptake of various substances. In this screen, active compounds show a clear zone on the sensitive strain plate and no zone for the resistant strain plate.
(§6) Approximately 1×10^6 cells per ml are added to growth medium containing 2% agar. Medium and cells are mixed, poured into plates, and allowed to solidify. Test compounds or fermentation extracts are applied with the intent of identifying samples which inhibit the growth of these yeast. The cultures are incubated at 30° C. for 16-24 hours. A similar assay can also be run in a high-throughput microtiter format by inoculating cells into liquid growth medium containing test compounds or fermentation extracts. Active compounds can be identified by assaying for growth inhibition, which can be determined by measuring the optical density of the individual cultures.

[5] = system: S. cerevisiae sordarin sensitive strain (sS1); test: Growth inhibition assay I, sordarin sensitive strain; type: cell-based; details: Saccharomyces cerevisiae; 0.5 μg applied; agar plate, 30° C., 16-24 hours; read-out: clear zone of inhibition
Excerpt: as §5, §6

T2 sequence (P32324 whole entry): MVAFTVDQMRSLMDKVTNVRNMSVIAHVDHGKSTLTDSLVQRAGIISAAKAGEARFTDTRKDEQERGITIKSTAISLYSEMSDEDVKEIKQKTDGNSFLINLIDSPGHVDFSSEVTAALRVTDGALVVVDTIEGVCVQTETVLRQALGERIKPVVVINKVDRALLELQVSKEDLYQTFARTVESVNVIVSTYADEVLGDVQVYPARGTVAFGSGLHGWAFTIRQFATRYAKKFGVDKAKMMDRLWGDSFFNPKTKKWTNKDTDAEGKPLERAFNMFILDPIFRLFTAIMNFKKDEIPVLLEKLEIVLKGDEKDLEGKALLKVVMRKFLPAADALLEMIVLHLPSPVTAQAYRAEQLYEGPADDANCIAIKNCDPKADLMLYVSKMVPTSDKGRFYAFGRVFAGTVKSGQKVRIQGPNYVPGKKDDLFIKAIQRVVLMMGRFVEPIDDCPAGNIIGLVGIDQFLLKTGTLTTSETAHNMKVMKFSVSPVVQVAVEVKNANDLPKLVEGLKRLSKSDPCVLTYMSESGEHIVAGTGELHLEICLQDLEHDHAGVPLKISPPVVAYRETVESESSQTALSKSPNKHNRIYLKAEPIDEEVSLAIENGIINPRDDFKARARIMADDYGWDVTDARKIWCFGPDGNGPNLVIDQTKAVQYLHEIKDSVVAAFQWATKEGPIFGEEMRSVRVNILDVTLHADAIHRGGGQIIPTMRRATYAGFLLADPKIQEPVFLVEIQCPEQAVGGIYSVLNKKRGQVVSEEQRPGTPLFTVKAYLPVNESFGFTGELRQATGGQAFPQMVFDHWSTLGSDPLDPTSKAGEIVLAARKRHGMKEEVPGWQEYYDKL
T1 sequence (P32324 whole entry): as above

SMILES	displacement of ^3H-Compound I binding (in words) ([1]; Saccharomyces S30 extracts)	binding of labelled compound (in words) (wheat germ EF2; listed as 3H-L793,422)	binding of labelled compound (in words) (wheat germ EF2; listed as labelled compound)	amount of labelled compound bound ([1]; 10 μg S30 extract from wild-type Saccharomyces)	binding of labelled compound (in words) ([1]; Saccharomyces S30 extracts)	amount of labelled compound bound ([2]; 0.65 pmol purified Saccharomyces EF2 plus 4 pmol purified Saccharomyces ribosomes)	binding of labelled compound (in words) ([2]; yeast ribosomes replaced by rat (liver) ribosomes, listed as 3H-L793,422)	binding of labelled compound (in words) ([2]; yeast ribosomes replaced by rat (liver) ribosomes, listed as labelled compound)	binding of labelled compound (in words) ([2]; yeast ribosomes replaced by wheat germ ribosomes, listed as 3H-L793,422)	binding of labelled compound (in words) ([2]; yeast ribosomes replaced by wheat germ ribosomes, listed as labelled compound)	binding of labelled compound (in words) (rat EF2; listed as 3H-L793,422)	binding of labelled compound (in words) (rat EF2; listed as labelled compound)	binding of labelled compound (in words) (wheat germ S30 extracts)	binding of labelled compound (in words) [3]	IC50 ([1]; 10 μg S30 extract from wild-type Saccharomyces, read-out: IC50 for displacement of ^3H-Compound I binding (converted)) [nM]	zone of inhibition (in words) [4]	zone of inhibition at 0.5 µg/disc [5] [mm]
CC(C)COCC12CC3C(C)CCC3[C@@]3(C=O)C[C@@H]1C=C(C(C)C)[C@@]23C(=O)O (stereo partly drawn) [Compound I]	displaceable	–	–	–	–	–	–	–	–	–	–	–	–	–	–	–	–
CC(C)COCC12CC3C(C)CCC3[C@@]3(C=O)C[C@@H]1C=C(C(C)C)[C@@]23C(=O)O (stereo partly drawn) [^3H-Compound I]	–	abolishes binding	abolishes binding to background levels	approximately 0.5 pmol	Specific binding	approximately 0.6 pmol	no effect on binding	does not reduce binding	no effect on binding	does not reduce binding	abolishes binding	abolishes binding to background levels	No binding	No binding	–	–	–
CO[C@H]1[C@@H](O)[C@H](O)[C@H](OC[C@@]23C[C@@H]4[C@H](C)CC[C@H]4[C@@]4(C=O)CC2C=C(C(C)C)[C@@]34C(=O)O)O[C@@H]1C [sordarin, reference compound]	displaceable	–	–	–	–	–	–	–	–	–	–	–	–	–	6.09	no zone	20
